Laboratory results: patent publication US8809321B2, “Diaryl ether linked pyrrolo [2,1-c][1,4] benzodiazepine hybrids and process for the preparation thereof” (Council of Scientific and Industrial Research, priority 2011, dated 2014)
Like-named read-outs stand apart in the source and are kept apart here.

How the values were obtained:
[1] = tested on: MCF7 breast cancer cell line; experiment: MTT assay, 48 h continuous drug exposure, MCF7; format: cell-based, human
Description: (§1) Some of the C8-linked diaryl ether-PBD hybrids have been tested against eleven human tumour cell lines derived from seven cancer types (lung cancer, colon cancer, cervix, ovarian cancer, oral cancer, prostate cancer and breast cancer) as per Tata protocol as shown in Table 2. For each compound, dose response curves for each cell line were measured at a minimum of five concentrations at 10 fold dilutions. A protocol of 48 h continuous drug exposure was used and a MTT assay was used to estimate cell viability or growth. The percent of cell growth (GI50) compared with the control was calculated. Some of the compounds have been evaluated for their in vitro cytotoxicity in eleven cell lines from seven human cancer types. The results are expressed as GI50 determined relative to that of untreated control cells (Table-2).

[2] = tested on: Colo205 colon cancer cell line; experiment: MTT assay, 48 h continuous drug exposure, Colo205; format: cell-based, human
Description: as §1

[3] = tested on: duplex-form calf thymus DNA (CT-DNA); experiment: Thermal denaturation studies with calf thymus DNA (DNA binding affinity); details: [PBD]:[DNA] molar ratio 1:5, CT-DNA 100 μM, ligand 20 μM, sodium phosphate buffer pH 7.00; for (ΔTm ° C.) after incubation at 37° C. for 0 h: 0 h at 37° C.; for (ΔTm ° C.) after incubation at 37° C. for 18 h: 18 h at 37° C.
Description: DNA Binding Affinity of Diaryl Ether Linked PBD Hybrids: Compounds have been subjected to thermal denaturation studies with duplex-form calf thymus DNA (CT-DNA) using a modification of a reported procedure (Newman, M. S. Carcinog-compr. Surv. 1976, 1, 203; ([…].; Loy, M.; Hoffman, Carcinog-compr. […] The DNA-PBD solutions have been incubated at 37° C. for 0 and 18 h prior to analysis. […] DNA helix→coil transition temperatures (Tm) have been obtained from the maxima in the d(A260)/dT derivative plots. […] The DNA binding activity for these novel C8-linked diaryl ether PBD hybrids has been examined by thermal denaturation studies using calf thymus (CT) DNA. […] The data for the compounds are included in Table 1 for comparison.

[4] = tested on: A549 lung cancer cell line; experiment: MTT assay, 48 h continuous drug exposure, A549; format: cell-based, human
Description: as §1

[5] = tested on: Gurav oral cancer cell line; experiment: MTT assay, 48 h continuous drug exposure, Gurav; format: cell-based, human; details: oral cancer cell line, 48 h exposure, MTT, read-out: GI50 Gurav
Description: (§2) For each compound, dose response curves for each cell line were measured at a minimum of five concentrations at 10 fold dilutions. A protocol of 48 h continuous drug exposure was used and a MTT assay was used to estimate cell viability or growth. The percent of cell growth (GI50) compared with the control was calculated.

[6] = tested on: SiHa Cervix cancer cell line; experiment: MTT assay, 48 h continuous drug exposure, SiHa; format: cell-based, human; details: Cervix cancer cell line, 48 h exposure, MTT, read-out: GI50 SiHa
Description: as §2

[7] = tested on: A2780 ovarian cancer cell line; experiment: MTT assay, 48 h continuous drug exposure, A2780; format: cell-based, human; details: ovarian cancer cell line, 48 h exposure, MTT, read-out: GI50 A2780
Description: as §2

[8] = tested on: Hop62 lung cancer cell line; experiment: MTT assay, 48 h continuous drug exposure, Hop62; format: cell-based, human; details: lung cancer cell line, 48 h exposure, MTT, read-out: GI50 Hop62
Description: as §2

[9] = tested on: PC3 prostrate cancer cell line; experiment: MTT assay, 48 h continuous drug exposure, PC3; format: cell-based, human; details: prostrate cancer cell line, 48 h exposure, MTT, read-out: GI50 PC3
Description: as §2

[10] = tested on: ZR-751 breast cancer cell line; experiment: MTT assay, 48 h continuous drug exposure, ZR-751; format: cell-based, human; details: breast cancer cell line, 48 h exposure, MTT, read-out: GI50 ZR-751
Description: as §2

[11] = tested on: DWD oral cancer cell line; experiment: MTT assay, 48 h continuous drug exposure, DWD; format: cell-based, human; details: oral cancer cell line, 48 h exposure, MTT, read-out: GI50 DWD
Description: as §2

[12] = Homo sapiens, MCF7, 48 h exposure
[13] = Homo sapiens, COLO 205, 48 h exposure
[14] = Homo sapiens, A549, 48 h exposure

| SMILES | (ΔTm ° C.) after incubation at 37° C. for 0 h [3] | (ΔTm ° C.) after incubation at 37° C. for 18 h [3] | GI50 [5] | GI50 [6] | GI50 [7] | GI50 [8] | GI50 [9] | GI50 ([1]; 48 h exposure) | GI50 ([2]; 48 h exposure) | GI50 [10] | GI50 ([4]; 48 h exposure) | GI50 [11] | other results |
| --- | --- | --- | --- | --- | --- | --- | --- | --- | --- | --- | --- | --- | --- |
| COc1ccc(Oc2ccc(O)cc2N)cc1OC [5b, 3-amino-4-(3,4-dimethoxyphenoxy)phenol, reference compound] | 0.1 °C | 0.2 °C |  |  |  |  |  |  |  |  |  |  | GI50 [1, 12]: > 50000 nM; GI50 [2, 13]: > 50000 nM; GI50 [4, 14]: > 50000 nM |
| COc1ccc(Oc2ccc(C(=O)N3CCNCC3)cc2N)cc1OC [7b, [3-amino-4-(3,4-dimethoxyphenoxy)phenyl](piperazino)methanone, reference compound] | 0.2 °C | 0.5 °C |  |  |  |  |  |  |  |  |  |  | GI50 [1, 12]: > 50000 nM; GI50 [2, 13]: > 50000 nM; GI50 [4, 14]: > 50000 nM |
| COc1ccc(Oc2cc(OCCCCCOc3cc4c(cc3OC)C(=O)N3CCC[C@H]3C=N4)ccc2N)cc1 [10g, 7-Methoxy-(8-5-[4-amino-3-(4-methoxyphenoxy)phenoxy]pentyloxy)-(11aS)-1,2,3,11a-tetrahydro-5H-pyrrolo[2,1-c][1,4]benzodiazepin-5-one] | 2.9 °C | 3.6 °C | 2430 nM | 1560 nM | 2300 nM | 2100 nM | 2840 nM | 2300 nM | 1500 nM | 3100 nM | 2840 nM | 2400 nM |  |
| COc1ccc(Oc2cc(OCCCCCOc3cc4c(cc3OC)C(=O)N3CCC[C@H]3C=N4)ccc2N)cc1OC [11g, 7-Methoxy-(8-5-[4-amino-3-(3,4-dimethoxyphenoxy)phenoxy]pentyloxy)-(11aS)-1,2,3,11a-tetrahydro-5H-pyrrolo[2,1-c][1,4]benzodiazepin-5-one] | 4.1 °C | 5.5 °C | 160 nM | 1990 nM | 170 nM | 2430 nM | 2250 nM | 160 nM | 170 nM | 2500 nM | 2010 nM | 180 nM |  |
| COc1cc2c(cc1OCCCCCOc1ccc(N)c(Oc3cc(OC)c(OC)c(OC)c3)c1)N=C[C@@H]1CCCN1C2=O [12g, 7-Methoxy-(8-5-[4-amino-3-(3,4,5-trimethoxyphenoxy)phenoxy]pentyloxy)-(11aS)-1,2,3,11a-tetrahydro-5H-pyrrolo[2,1-c][1,4]benzodiazepin-5-one] | 4.2 °C | 5.1 °C | 170 nM | 2860 nM | 170 nM | 2860 nM | 2190 nM | 160 nM | 160 nM | 2100 nM | 190 nM | 170 nM |  |
| COc1ccc(Oc2ccc(OCCCCCOc3cc4c(cc3OC)C(=O)N3CCC[C@H]3C=N4)cc2I)cc1 [16c] | 3.6 °C | 4.6 °C | 2230 nM | 1420 nM | 2300 nM | 1500 nM | 2120 nM | 2100 nM | 2220 nM | 3300 nM | 2700 nM | 2600 nM |  |
| COc1ccc(Oc2ccc(OCCCCCOc3cc4c(cc3OC)C(=O)N3CCC[C@H]3C=N4)cc2I)cc1OC [17c] | 3.9 °C | 4.8 °C | 2270 nM | 2350 nM | 2800 nM | 1120 nM | 2560 nM | 2600 nM | 2260 nM | 3800 nM | 2450 nM | 2700 nM |  |
| COc1ccc(Oc2cc(OCCCCCOc3cc4c(cc3OC)C(=O)N3CCC[C@H]3C=N4)ccc2I)cc1OC [17g, 7-Methoxy-(8-5-[4-iodo-3-(3,4-dimethoxyphenoxy)phenoxy]pentyloxy)-(11aS)-1,2,3,11a-tetrahydro-5H-pyrrolo[2,1-c][1,4]benzodiazepin-5-one] | 4.3 °C | 5.1 °C | 190 nM | 190 nM | 180 nM | 2250 nM | 170 nM | < 100 nM | 2200 nM | 1950 nM | 1650 nM | 180 nM |  |
| COc1cc2c(cc1OCCCCCOc1ccc(Oc3cc(OC)c(OC)c(OC)c3)c(I)c1)N=C[C@@H]1CCCN1C2=O [18c] | 4.6 °C | 5.5 °C | 2680 nM | 2220 nM | 3100 nM | 2010 nM | 2570 nM | 3600 nM | 3120 nM | 2780 nM | 3040 nM | 3000 nM |  |
| COc1ccc(Oc2cccc(OCCCCCOc3cc4c(cc3OC)C(=O)N3CCC[C@H]3C=N4)c2[N+](=O)[O-])cc1 [19g, 7-Methoxy-(8-3-[3-(4-methoxyphenoxy)-2-nitrophenoxy]pentyloxy)-(11aS)-1,2,3,11a-tetrahydro-5H-pyrrolo[2,1-c][1,4]benzodiazepin-5-one] | 4.9 °C | 5.8 °C | 2260 nM | 1620 nM | 2300 nM | 2500 nM | 2840 nM | 2000 nM | 170 nM | 2500 nM | 2220 nM | 2300 nM |  |
| COc1ccc(Oc2ccc(OCCCCCOc3cc4c(cc3OC)C(=O)N3CCC[C@H]3C=N4)cc2[N+](=O)[O-])cc1OC [20c, 7-Methoxy-(8-3-[4-(3,4-dimethoxyphenoxy)-3-nitrophenoxy]pentyloxy)-(11aS)-1,2,3,11a-tetrahydro-5H-pyrrolo[2,1-c][1,4]benzodiazepin-5-one] | 4.9 °C | 5.6 °C | 1240 nM | 2470 nM | 140 nM | 140 nM | 160 nM | 140 nM | 130 nM | 130 nM | 150 nM | 130 nM |  |
| COc1ccc(Oc2cccc(OCCCCCOc3cc4c(cc3OC)C(=O)N3CCC[C@H]3C=N4)c2[N+](=O)[O-])cc1OC [20g, 7-Methoxy-(8-3-[3-(3,4-dimethoxyphenoxy)-2-nitrophenoxy]pentyloxy)-(11aS)-1,2,3,11a-tetrahydro-5H-pyrrolo[2,1-c][1,4]benzodiazepin-5-one] | 4.5 °C | 6.0 °C | 160 nM | 2500 nM | 2000 nM | 190 nM | 2250 nM | 2100 nM | 170 nM | 190 nM | 190 nM | 180 nM |  |
| COc1cccc2c1C(=O)c1c(O)c3c(c(O)c1C2=O)C[C@@](O)(C(=O)CO)C[C@@H]3O[C@H]1C[C@H](N)[C@H](O)[C@H](C)O1 [ADR, adriamycin, reference compound] |  |  |  |  |  |  |  |  |  |  |  |  | GI50 ([5]; Homo sapiens, Gurav): < 100 nM; GI50 ([6]; Homo sapiens, SiHa): 160 nM; GI50 ([7]; Homo sapiens, A2780): < 100 nM; GI50 ([8]; Homo sapiens, HOP-62): 150 nM; GI50 ([9]; Homo sapiens): 160 nM; GI50 [1, 12]: 130 nM; GI50 [2, 13]: < 100 nM; GI50 ([10]; Homo sapiens, ZR-75-1): 110 nM; GI50 [4, 14]: < 100 nM; GI50 ([11]; Homo sapiens): 120 nM |
